In brackets after ≈: the same amount, converted by molar mass.
Tests used:
Test in all cases: Antimicrobial activity assay (broth microdilution MIC)
Type in all cases: cell-based
[1] = test system: Escherichia coli HMS174 DSM 5932 (ATCC 47011); settings: MH broth, 35°C, 18 hours, absorbance 625 nm, three independent tests, plectasin 2–2,048 µg/mL, CASPON-plectasin 16–16,384 µg/mL
Excerpt: (§1) The test panel included four gram-positive and four gram-negative bacterial strains, which were selected based on EUCAST recommendations and are commonly used in quality control for pathogen testing. Specifically, the test panel comprised the following four gram-positive strains: Staphylococcus aureus DSM 2569 (ATCC 29213), Streptococcus pneumoniae DSM 24048 (ATCC 49619), Listeria monocytogenes DSM 20600 (ATCC 15313), and Enterococcus faecalis DSM 2570 (ATCC 29212). The gram-negative strains included the following: Pseudomonas aeruginosa DSM 1117 (ATCC 27853), Escherichia coli DSM 1103 (ATCC 25922), Escherichia coli BL21(DE3) DSM 102052 (ATCC BAA-1025-B2), and Escherichia coli HMS174 DSM 5932 (ATCC 47011). These strains were obtained from the German Collection of Microorganisms and Cell Cultures GmbH (DSMZ, Leibnitz Institute, Braunschweig, Germany). The strains were maintained in cryo-stocks containing 20% glycerol at a temperature of −80°C. When needed, all gram-negative strains were streaked on MH-agar (Oxoid, Hampshire, UK) and all gram-positive strains on TSYE-agar, with the exception of the Listeria monocytogenes strain, for which BHI-agar was used. All strains were incubated overnight at 35°C.
(§2) The plates were made fresh on the day of the assay by first adding 50 µL of sterile water (for the gram-positive strains) or PBS buffer pH 7.4 (for the gram-negative strains) into the wells of the first to 11th column of a polystyrene 96-well plate (Greiner, 655161, Kremsmünster, Austria). An ampicillin stock solution (6,400 µg/mL) was prepared and diluted in sterile water to obtain a final ampicillin solution of 64 µg/mL. Purified plectasin, 100 µL of ampicillin solution, CASPON-plectasin, and sterile water for the negative control were each dispensed into two wells of the 12th microtiter plate column and diluted twofold from the 11th to the second column by transferring 50 µL per well of the previous column into the next one (in the end, 50 µL of the 2nd was discarded) to obtain the ranges of 0.064–64 µg/mL for ampicillin, 32–32,768 µg/mL for CASPON-plectasin, and 0.5–512 µg/mL (Streptococcus pneumoniae and Staphylococcus aureus), 1–1,024 µg/mL (Enterococcus faecalis and Listeria monocytogenes), or 4–4,096 µg/mL (gram-negative strains) for plectasin.
(§3) Bacterial inocula were prepared by suspending colonies from incubated plates described above with 3 mL 0.85% NaCl solution to obtain a turbidity corresponding to McFarland standard 0.5. The inoculated saline suspensions (1–2 × 10^8 CFU/mL) were diluted 1:100 in double concentrated MH- (all gram-negative strains, Staphylococcus aureus, and […]) or MHF- (Streptococcus pneumoniae, Listeria monocytogenes; MH-broth with 5% lysed horse blood and 20 mg/L ß-NAD) broth to obtain approximately […]. Fifty microliters of the diluted inoculum was added to the wells of the prepared microdilution plate, resulting in the final plectasin (0.25–256 µg/mL, 0.5–512 µg/mL, and 2–2,048 µg/mL), CASPON-plectasin (16–16,384 µg/mL), and ampicillin (0.032–32 µg/mL) concentrations and approximately […]. The wells of the negative control were inoculated with sterile double-concentrated MH- or MH-F broth. A schematic illustration of the plate preparation can be found in the supplementary material (Fig. S1). Plates were incubated in ambient air at 35°C for 18 hours. After incubation, the plates were shaken for 1 minute (1,000 rpm) on a platform shaker (Titramax 101, Heidolph, Schwabach, Germany) until obtaining a homogeneous suspension. The absorbances (625 nm) of each well were measured on a Tecan Spark device (Männedorf, Switzerland) and subtracted by the average absorbance of the negative control. […] The variability of the MIC results was evaluated by testing all strains against each agent in three independent assays. […]

[2] = test system: Escherichia coli BL21(DE3) DSM 102052 (ATCC BAA-1025-B2)
Excerpt: as §1, §2, §3

[3] = test system: Pseudomonas aeruginosa DSM 1117 (ATCC 27853); settings: MH broth, 35°C, 18 hours, absorbance 625 nm, three independent tests, plectasin 2–2,048 µg/mL, CASPON-plectasin 16–16,384 µg/mL
Excerpt: as §1, §2, §3

[4] = test system: Streptococcus pneumoniae DSM 24048 (ATCC 49619); settings: 18 hours
Excerpt: as §1, §2, §3

[5] = test system: Listeria monocytogenes DSM 20600 (ATCC 15313); settings: MHF broth, approx 5 × 10^4 CFU/well, 35°C, 18 hours, absorbance 625 nm, three independent assays, plectasin 0.5–512 µg/mL, CASPON-plectasin 16–16,384 µg/mL
Excerpt: as §1, §2, §3

[6] = test system: Staphylococcus aureus DSM 2569 (ATCC 29213); settings: 18 hours
Excerpt: as §1, §2, §3

[7] = test system: Escherichia coli DSM 1103 (ATCC 25922); settings: MH broth, 35°C, 18 hours, absorbance 625 nm, three independent tests, plectasin 2–2,048 µg/mL, CASPON-plectasin 16–16,384 µg/mL
Excerpt: as §1, §2, §3

[8] = test system: Enterococcus faecalis DSM 2570 (ATCC 29212); settings: MH broth, approx 5 × 10^4 CFU/well, 35°C, 18 hours, absorbance 625 nm, three independent assays, plectasin 0.5–512 µg/mL, CASPON-plectasin 16–16,384 µg/mL
Excerpt: as §1, §2, §3

[9] = microdilution, extinction at 625 nm, Fig. 3

**Q.** What does the source list for CC[C@H](C)[C@@H]1NC(=O)[C@H](CO)NC(=O)[C@H](CCCCN)NC(=O)[C@@H]2CSSC[C@@H](C(=O)N[C@@H](Cc3ccc(O)cc3)C(=O)O)NC(=O)[C@H](CCCCN)NC(=O)[C@@H]3CSSC[C@H](NC(=O)[C@H](CCC(N)=O)NC(=O)[C@H](CCSC)NC(=O)[C@H](CC(=O)O)NC(=O)[C@H](CC(=O)O)NC(=O)[C@H](CCC(=O)O)NC(=O)[C@H](CC(=O)O)NC(=O)[C@H](Cc4c[nH]c5ccccc45)NC(=O)[C@@H]4CCCN4C(=O)CNC(=O)[C@H](CC(N)=O)NC(=O)[C@@H](NC(=O)CNC(=O)[C@H](Cc4ccccc4)NC(=O)CN)CSSC[C@H](NC(=O)[C@H](Cc4ccc(O)cc4)NC(=O)CNC(=O)CNC(=O)[C@H](CCCCN)NC(=O)[C@H](Cc4ccc(O)cc4)NC(=O)CNC(=O)[C@H](CCCCN)NC1=O)C(=O)N[C@@H](C)C(=O)N[C@@H](CCCCN)C(=O)NCC(=O)NCC(=O)N[C@@H](Cc1ccccc1)C(=O)N[C@@H](C(C)C)C(=O)N3)C(=O)N[C@@H](Cc1c[nH]cn1)C(=O)N[C@@H](CC(N)=O)C(=O)N[C@@H](Cc1c[nH]cn1)C(=O)N2 [Plectasin, plectasin]?
**A.** growth inhibition (no MIC could be determined) [1]: no growth decline; growth inhibition (no MIC could be determined) ([2]; broth microdilution, MH broth, 35°C, 18 hours, absorbance 625 nm, three independent tests, plectasin 2–2,048 µg/mL, CASPON-plectasin 16–16,384 µg/mL): no growth decline; extinction value at 625 nm (growth) at the highest plectasin concentration ([2]; increased number and altered morphology of cells (Fig. S11)): four times higher; growth inhibition (no MIC could be determined) [3]: no growth decline; MIC ([4]; broth microdilution, MHF broth (5% lysed horse blood, 20 mg/L ß-NAD), approx 5 × 10^4 CFU/well, 35°C, absorbance 625 nm, three independent assays, plectasin 0.25–256 µg/mL, CASPON-plectasin 16–16,384 µg/mL): 4 µg/mL (≈ 0.909 µM); plectasin concentration at which a distinct gradient of extinction reduction was observed [4, 9]: 0.5 µg/mL; MIC [5]: 32 µg/mL (≈ 7.27 µM); MIC ([6]; broth microdilution, MH broth, approx 5 × 10^4 CFU/well, 35°C, absorbance 625 nm, three independent assays, plectasin 0.25–256 µg/mL, CASPON-plectasin 16–16,384 µg/mL): 32 µg/mL (≈ 7.27 µM); plectasin concentration at which a distinct gradient of extinction reduction was observed [6, 9]: 8 µg/mL; growth inhibition (no MIC could be determined) [7]: no growth decline; MIC [8]: 128 µg/mL (≈ 29.1 µM)

From publication PMC12096834, “Antimicrobial peptide plectasin recombinantly produced in Escherichia coli disintegrates cell walls of gram-positive bacteria, as proven by transmission electron and atomic force microscopy” (Journal of Bacteriology, 2025)
